Reference: paper PMC6544628, “Plasmodium pseudo-Tyrosine Kinase-like binds PP1 and SERA5 and is exported to host erythrocytes” (Scientific Reports, 2019)

Biological target: T1, pTKL_KD_WT (PfpTKL kinase domain) (Plasmodium falciparum, UniProt Q8IIT5)
T1 construct: gene pTKL
Conditions: labelled compound (ATP immobilised on agarose); protein dialyzed against PBS with 1 mM DTT and 1 mM EDTA

T1 sequence (Q8IIT5 1098-1501): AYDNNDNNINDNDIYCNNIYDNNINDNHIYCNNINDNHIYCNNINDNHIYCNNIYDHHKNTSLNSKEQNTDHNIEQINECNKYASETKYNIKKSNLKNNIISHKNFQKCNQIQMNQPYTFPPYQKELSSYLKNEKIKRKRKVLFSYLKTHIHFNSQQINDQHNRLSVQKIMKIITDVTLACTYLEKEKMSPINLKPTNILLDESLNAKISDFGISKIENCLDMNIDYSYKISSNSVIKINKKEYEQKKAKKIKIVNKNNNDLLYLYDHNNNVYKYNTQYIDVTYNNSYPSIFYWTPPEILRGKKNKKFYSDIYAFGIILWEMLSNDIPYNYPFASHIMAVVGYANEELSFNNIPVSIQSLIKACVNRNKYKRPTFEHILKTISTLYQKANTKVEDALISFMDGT

Q: Which “ATP-agarose bead pull-down, anti-His6 western blot” value does the source give for Nc1ncnc2c1ncn2[C@@H]1O[C@H](COP(=O)(O)OP(=O)(O)OP(=O)(O)O)[C@@H](O)[C@H]1O [ATP] here?
A: Its value is “The PfpTKL pseudo-KD was able to bind ATP but did not display any kinase activity”.
